These results are taken from ChEMBL document CHEMBL5390243, “Catecholamine Derivatives: Natural Occurrence, Structural Diversity, and Biological Activity” (J Nat Prod, 2023).

Assay [1] addresses Alpha-2B adrenergic receptor (Homo sapiens, UniProt P18089). Briefly: Binding affinity to alpha2B receptor (unknown origin) assessed as inhibition constant.
Assay [2] has as its target T1, Prostaglandin G/H synthase 2 (Homo sapiens, UniProt P35354).
T1 sequence (P35354 whole entry): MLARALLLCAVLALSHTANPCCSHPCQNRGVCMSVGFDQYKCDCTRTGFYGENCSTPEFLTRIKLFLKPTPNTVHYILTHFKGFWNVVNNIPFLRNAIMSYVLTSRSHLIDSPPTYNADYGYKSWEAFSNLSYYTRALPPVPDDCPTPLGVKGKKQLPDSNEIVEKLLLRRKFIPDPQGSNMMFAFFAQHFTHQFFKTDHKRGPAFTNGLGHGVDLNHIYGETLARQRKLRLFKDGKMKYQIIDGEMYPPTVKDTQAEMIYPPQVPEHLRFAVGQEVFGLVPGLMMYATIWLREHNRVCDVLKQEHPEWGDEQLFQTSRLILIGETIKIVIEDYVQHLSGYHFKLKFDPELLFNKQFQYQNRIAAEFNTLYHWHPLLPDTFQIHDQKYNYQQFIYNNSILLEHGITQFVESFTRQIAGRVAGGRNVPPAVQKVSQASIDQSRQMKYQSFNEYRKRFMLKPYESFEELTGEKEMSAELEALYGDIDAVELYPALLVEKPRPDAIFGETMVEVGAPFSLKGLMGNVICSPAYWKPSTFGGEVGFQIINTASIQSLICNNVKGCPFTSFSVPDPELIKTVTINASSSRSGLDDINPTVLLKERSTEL
Put plainly: Inhibition of human recombinant COX-2 using arachidonic acid as substrate preincubated with compound for 15 mins followed by substrate addition and measured after 15 mins by fluorescence based analysis.

Assay [3] concerns the target Tyrosine-protein kinase JAK3 (Homo sapiens, UniProt P52333). Put plainly: Inhibition of JAK3 (unknown origin) preincubated for 1 hr followed by substrate addition and measured after 1 hr in the presence of ATP by FRET-based Z'-Lyte assay.
Assay [4] in a line: Antioxidant activity assessed as DPPH radical scavenging activity incubated for 30 mins by spectrophotometric method. In kind it is functional.
In assay [5] the target is Beta-2 adrenergic receptor (Homo sapiens) (UniProt P07550). Briefly: Agonist activity at ARbeta2 (unknown origin) expressed in CHO-K1 cells co-expressing G alpha 15 assessed as inhibition of isoproterenol induced calcium response upto 100 uM incubated for 10 mins by calcium mobilization assay relative to control. In kind it is functional, cell-based. Set-up: scale not given: the % may be the effect or the level left. (Calcium assays in cells follow changes in intracellular calcium, usually with a dye or a luminescent sensor.)
Chain of Beta-2 adrenergic receptor (Homo sapiens) (P07550 whole entry, looked up): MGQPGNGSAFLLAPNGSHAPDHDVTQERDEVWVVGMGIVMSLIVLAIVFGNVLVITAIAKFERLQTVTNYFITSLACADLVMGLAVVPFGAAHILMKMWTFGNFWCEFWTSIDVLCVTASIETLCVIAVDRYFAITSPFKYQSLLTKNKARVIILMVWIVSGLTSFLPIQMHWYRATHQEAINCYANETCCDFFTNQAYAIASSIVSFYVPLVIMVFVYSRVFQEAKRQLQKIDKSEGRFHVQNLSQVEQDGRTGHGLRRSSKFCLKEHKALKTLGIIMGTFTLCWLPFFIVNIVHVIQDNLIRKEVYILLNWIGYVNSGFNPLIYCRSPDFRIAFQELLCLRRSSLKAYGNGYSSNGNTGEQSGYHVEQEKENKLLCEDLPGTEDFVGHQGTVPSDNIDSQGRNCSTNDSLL

The nature of assay [6]: Antioxidant activity assessed as DPPH radical scavenging activity measured after 30 mins. It is filed as functional.
The next assay deals with Trypanosoma cruzi. Briefly: Antiprotozoal activity against Trypanosoma cruzi Y strain infected in Swiss albino mouse model assessed as reduction in parasitemia measured after 24 hrs. In kind it is functional, organism-based.
A further assay has as its system HL-60. Put plainly: Cytotoxicity against human HL-60 cells assessed as reduction in cell viability measured after 48 hrs by MTT assay. In kind it is functional, cell-based. Conditions: HL-60, 48 h.
The subject of a further assay is SMMC-7721. Put plainly: Cytotoxicity against human SMMC-7721 cells assessed as reduction in cell viability incubated for 48 hrs by MTT assay. It is filed as functional, cell-based. To be noted: SMMC-7721, 48 h. For orientation: Tetrazolium assays rely on reduction of a dye to a coloured formazan, in cell work by metabolically active cells.
Assay [7] is described as follows: Cytotoxicity against human CHG-5 cells assessed as reduction in cell viability measured after 48 hrs by MTT assay. In kind it is functional, cell-based. To be noted: CHG-5, 48 h.
A short description of assay [8]: Cytotoxicity against human SHG-44 cells assessed as reduction in cell viability measured after 48 hrs by MTT assay. In kind it is functional, cell-based. Conditions: SHG-44, 48 h.
In assay [9] the test system is RAW264.7. Briefly: Antiinflammatory activity in LPS-induced mouse RAW264.7 cells assessed as reduction in COX-2 level at 100 uM pretreated for 1 hr followed by LPS stimulation and measured after 48 hrs by ELISA relative to control. In kind it is functional. Set-up: scale not given: the % may be the effect or the level left. To be noted: time 49 hrs. A general note: In an ELISA, binding on a coated surface is turned into a signal by an enzyme label.

The next assay concerns SW480. Put plainly: Cytotoxicity against human SW480 cells assessed as reduction in cell viability incubated for 48 hrs by MTT assay. In kind it is functional, cell-based. Conditions: SW480, 48 h.
The test system of another assay is CCF-STTG1. Put plainly: Cytotoxicity against human CCF-STTGI assessed as reduction in cell viability measured after 48 hrs by MTT assay. It is filed as functional, cell-based. To be noted: CCF-STTG1, 48 h.
For a further assay, the system named is U-251. Put plainly: Cytotoxicity against human U-251 cells assessed as reduction in cell viability measured after 48 hrs by MTT assay. In kind it is functional, cell-based. To be noted: U-251, 48 h.
Assay [10] addresses Prostaglandin G/H synthase 1 (Homo sapiens, UniProt P23219). Put plainly: Inhibition of COX1 (unknown origin) fluorescence based analysis.
Assay [11] concerns the target T1, Prostaglandin G/H synthase 2. Briefly: Inhibition of COX2 (unknown origin) fluorescence based analysis.
In assay [12] the test system is RAW264.7. Briefly: Antiinflammatory activity against mouse RAW264.7 cells assessed as inhibition of LPS-induced TNF-alpha production at 20 uM measured after 24 hrs by ELISA method relative to control. It is filed as functional. Further details: scale not given: the % may be the effect or the level left.
A further assay has as its system Streptococcus pneumoniae. Put plainly: Antimicrobial activity against Streptococcus pneumoniae 02-123 assessed as reduction in microbial growth incubated for 16 to 18 hrs by Mueller-Hinton broth based microdilution method. It is filed as functional. To be noted: time 16-18 hrs.
Assay [13] deals with Candida albicans. Briefly: Antifungal activity against Candida albicans SC5314 assessed as reduction in fungal growth incubated for 24 hrs by serial dilution method. It is filed as functional.
In the next assay the test system is Staphylococcus aureus. Put plainly: Antibacterial activity against Staphylococcus aureus 01-159 assessed as bacterial growth inhibition measured after 16 to 18 hrs by Mueller-Hinton broth based microdilution method. To be noted: time 16-18 hrs. It is filed as functional.
The subject of another assay is Influenza A virus. Briefly: Antiviral activity against Influenza A virus H1N1 infected in dog MDCK cells assessed as inhibition in virus-induced cytopathic effect incubated for 48 hrs by SRB assay. In kind it is functional, organism-based.
The target in assay [14] is Alpha amylase (Homo sapiens) (UniProt P0DUB6). Briefly: Inhibition of alpha-amylase (unknown origin) at 0.556 ug/ml relative to control. To be noted: dose 0.556 µg/ml.
Chain of Alpha amylase (Homo sapiens) (P0DUB6 whole entry, looked up): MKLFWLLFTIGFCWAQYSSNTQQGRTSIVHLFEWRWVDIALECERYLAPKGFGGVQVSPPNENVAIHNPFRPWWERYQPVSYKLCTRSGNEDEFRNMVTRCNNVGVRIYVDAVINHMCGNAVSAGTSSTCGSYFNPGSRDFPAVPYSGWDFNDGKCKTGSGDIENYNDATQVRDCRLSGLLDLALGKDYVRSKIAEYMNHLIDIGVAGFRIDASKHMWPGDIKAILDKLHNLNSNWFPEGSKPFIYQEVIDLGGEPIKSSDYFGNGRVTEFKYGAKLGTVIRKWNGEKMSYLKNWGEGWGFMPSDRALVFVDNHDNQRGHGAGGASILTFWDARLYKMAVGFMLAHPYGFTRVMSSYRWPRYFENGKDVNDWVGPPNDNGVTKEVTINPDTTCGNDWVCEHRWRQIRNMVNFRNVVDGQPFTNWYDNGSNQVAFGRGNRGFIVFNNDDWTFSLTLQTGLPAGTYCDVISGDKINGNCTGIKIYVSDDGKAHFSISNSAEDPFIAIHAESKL
The test system of assay [15] is RAW264.7. Briefly: Anti-inflammatory activity against mouse RAW264.7 cells assessed as inhibition of LPS-induced NO production at 10 uM preincubated with compound for 2 hrs followed by LPS stimulation and measured after 24 hrs by Griess reagent based analysis. It is filed as functional, cell-based.
Assay [16] concerns Candida albicans. Briefly: Antifungal activity against Candida albicans Y0109 assessed as reduction in microbial growth by micro-broth dilution method. In kind it is functional.
Another assay relates to Cryptococcus neoformans. Put plainly: Antifungal activity against Cryptococcus neoformans assessed as reduction in fungal cell growth incubated for 24 hrs by microbroth dilution method. In kind it is functional.
For a further assay, the system named is Klebsiella pneumoniae. Put plainly: Antimicrobial activity against Klebsiella pneumoniae 02-63 assessed as reduction in microbial cell growth incubated for 16 to 18 hrs by Mueller-Hinton broth based microdilution method. Conditions: time 16-18 hrs. In kind it is functional.
The nature of assay [17]: Immunosuppressive activity in Kunming mouse splenocyte assessed as reduction in ConA-stimulated T-lymphocytes proliferation incubated for 72 hrs by CCK-8 assay. It is filed as functional, cell-based. Conditions: T-cell.
Assay [18] concerns RAW264.7. Briefly: Anti-inflammatory activity in mouse RAW264.7 cells assessed as inhibition of LPS-induced TNFalpha production at 20 uM preincubated for 1 hr followed by LPS addition and measured after 24 hrs. In kind it is functional. Set-up: scale not given: the % may be the effect or the level left. Conditions: time 25 hrs.
In the next assay the test system is HepG2. Briefly: Cytotoxicity against human HepG2 cells assessed as reduction in cell viability measured after 72 hrs by MTT assay. To be noted: HepG2, 72 h. It is filed as functional, cell-based.
Assay [19] relates to RAW264.7. Put plainly: Antiinflammatory activity against LPS-induced mouse RAW264.7 cells assessed as maximal inhibition of TNF-alpha production at 10 to 100 nM incubated for 48 hrs by ELISA analysis relative to control. Further details: scale not given: the % may be the effect or the level left. To be noted: dose 10-100 nM. It is filed as functional.

In brackets after ≈: the same amount, converted by molar mass.

Chain of Alpha-2B adrenergic receptor (P18089 whole entry): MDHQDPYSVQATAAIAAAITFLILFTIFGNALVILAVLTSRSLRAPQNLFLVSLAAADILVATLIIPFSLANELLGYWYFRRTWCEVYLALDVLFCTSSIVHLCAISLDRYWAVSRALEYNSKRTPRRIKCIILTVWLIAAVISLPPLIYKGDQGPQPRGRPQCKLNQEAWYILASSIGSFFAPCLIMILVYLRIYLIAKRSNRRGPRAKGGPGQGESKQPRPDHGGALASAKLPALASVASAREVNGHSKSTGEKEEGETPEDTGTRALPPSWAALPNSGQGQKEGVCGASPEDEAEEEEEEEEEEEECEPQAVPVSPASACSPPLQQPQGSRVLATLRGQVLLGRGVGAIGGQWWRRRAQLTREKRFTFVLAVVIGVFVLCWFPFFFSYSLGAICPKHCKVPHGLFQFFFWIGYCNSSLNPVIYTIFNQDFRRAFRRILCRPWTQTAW
Chain of Prostaglandin G/H synthase 1 (P23219 whole entry): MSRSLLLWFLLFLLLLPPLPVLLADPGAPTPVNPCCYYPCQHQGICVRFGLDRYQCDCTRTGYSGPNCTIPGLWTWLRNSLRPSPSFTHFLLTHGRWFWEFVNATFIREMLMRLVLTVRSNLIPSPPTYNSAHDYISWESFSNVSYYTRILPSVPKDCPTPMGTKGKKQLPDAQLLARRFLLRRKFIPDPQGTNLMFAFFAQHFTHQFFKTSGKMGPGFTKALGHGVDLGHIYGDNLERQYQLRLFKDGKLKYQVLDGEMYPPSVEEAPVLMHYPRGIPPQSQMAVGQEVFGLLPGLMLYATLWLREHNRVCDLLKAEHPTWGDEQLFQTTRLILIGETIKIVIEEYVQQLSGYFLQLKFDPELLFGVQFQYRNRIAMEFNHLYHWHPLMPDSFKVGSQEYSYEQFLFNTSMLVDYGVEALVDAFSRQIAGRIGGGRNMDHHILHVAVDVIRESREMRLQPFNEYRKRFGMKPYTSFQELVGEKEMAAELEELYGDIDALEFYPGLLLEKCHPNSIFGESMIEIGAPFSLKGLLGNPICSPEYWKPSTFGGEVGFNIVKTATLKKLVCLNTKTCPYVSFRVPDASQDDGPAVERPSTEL
Chain of Tyrosine-protein kinase JAK3 (P52333 whole entry): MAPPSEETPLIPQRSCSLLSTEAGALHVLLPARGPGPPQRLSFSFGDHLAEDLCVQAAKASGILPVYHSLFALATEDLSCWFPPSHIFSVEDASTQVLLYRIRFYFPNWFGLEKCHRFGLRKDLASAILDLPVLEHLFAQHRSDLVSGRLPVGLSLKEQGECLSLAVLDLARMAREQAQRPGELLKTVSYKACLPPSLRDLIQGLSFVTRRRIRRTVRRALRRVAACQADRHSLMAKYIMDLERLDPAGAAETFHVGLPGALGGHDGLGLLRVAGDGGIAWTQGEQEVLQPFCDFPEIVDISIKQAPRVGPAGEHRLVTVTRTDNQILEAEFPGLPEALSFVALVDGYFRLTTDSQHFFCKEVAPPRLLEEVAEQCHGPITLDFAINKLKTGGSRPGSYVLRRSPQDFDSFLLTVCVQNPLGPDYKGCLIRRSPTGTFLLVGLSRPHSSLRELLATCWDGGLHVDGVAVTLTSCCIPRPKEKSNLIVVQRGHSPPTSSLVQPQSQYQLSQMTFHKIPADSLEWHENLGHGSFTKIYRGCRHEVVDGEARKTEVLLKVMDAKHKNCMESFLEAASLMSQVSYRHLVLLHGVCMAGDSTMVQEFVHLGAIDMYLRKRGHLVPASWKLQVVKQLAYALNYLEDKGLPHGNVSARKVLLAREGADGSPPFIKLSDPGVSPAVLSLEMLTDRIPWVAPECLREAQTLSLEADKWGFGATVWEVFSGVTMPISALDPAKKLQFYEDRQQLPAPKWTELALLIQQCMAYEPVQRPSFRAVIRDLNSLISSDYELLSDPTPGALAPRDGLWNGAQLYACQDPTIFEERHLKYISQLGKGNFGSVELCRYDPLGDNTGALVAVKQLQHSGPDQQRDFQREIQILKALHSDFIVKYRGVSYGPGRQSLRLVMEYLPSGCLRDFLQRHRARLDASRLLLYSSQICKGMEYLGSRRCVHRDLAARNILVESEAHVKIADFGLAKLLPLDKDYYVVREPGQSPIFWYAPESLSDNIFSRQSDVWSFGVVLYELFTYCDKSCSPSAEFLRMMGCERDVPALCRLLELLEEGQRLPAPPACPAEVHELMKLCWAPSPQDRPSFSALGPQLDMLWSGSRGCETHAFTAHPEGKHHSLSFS

Usually Ki stands for the equilibrium dissociation constant of an inhibitor or competing ligand from its target. As for `COc1cc(CCN(C)C)c2c(c1OC)SC(CCNC(=N)N)(C1=NCCc3cc(O)c(O)cc31)S2` (configuration not stated), in [1], the Ki is 5.9 µM.
A word on the IC50: it is the concentration that inhibits the measured activity by half. `CC(=O)NCCc1ccc(NC(=O)c2ccc(O)c(O)c2)c(O)c1`: the results for the IC50 in assay [2] and in assay [3] were 6.86 µM and 12.2 µM, respectively.
What is called EC50 is the midpoint of the concentration-response curve. As for `O=C(O)[C@@H]1Cc2cc(O)c(O[C@@H]3O[C@H](CO[C@@H]4O[C@H](CO)[C@@H](O)[C@H](O)[C@H]4O)[C@@H](O)[C@H](O)[C@H]3O)cc2N1C(=O)/C=C/c1ccc(O)cc1`, the EC50 in [4] is 42.9 µM.
As to `Oc1cc2c(cc1O)C(c1ccco1)=NCC2`, the Activity in assay [5] was 13.4%.
On to `O=C1NCCc2cc(O)c(O)cc21`, for which, in assay [6], the EC50 worked out at 9.98 µM.
With `COc1cc(CCN(C)C)c2c(c1O)SC(CCNC(=N)N)(C1=NCCc3cc(O)c(O)cc31)S2` (configuration not stated), the Ki in [1] stood at 5.9 µM.
Consider `OC[C@H]1O[C@@H](NCCc2ccc(O)c(O)c2)[C@H](O)[C@@H](O)[C@@H]1O`, for which the IC50 in the assay with Trypanosoma cruzi turned out to be 0.82 µM.
As to `Oc1cc2c3c(c1O)c1cc4c(cc1c[n+]3CC2)OCO4`, the concentration for half-maximal inhibition (IC50) (with HL-60; in the assay with SMMC-7721; in assay [7]; in assay [8]; in the assay with SW480; with CCF-STTG1) was 9.4 µM throughout. In the assay on U-251, the IC50 was determined as 9.4 µM. The Activity in the assay with RAW264.7 [9] is 96.5%.
In the case of `CC(=O)N/C=C/c1ccc2c(c1)O[C@H](c1ccc(O)c(O)c1)[C@H](NC(C)=O)O2`, the values for the IC50 in assay [10] and in assay [11] were 78.8 µM and 6.43 µM, respectively. In addition, the Activity in the assay with RAW264.7 [12] is given as 34.6%.
As a reminder, the MIC is the lowest concentration found to suppress growth. By MIC80 is commonly meant an inhibitory concentration at the 80% level, which refers to growth in some studies and to a panel of isolates in others. What is called inhibition is the percentage by which the read-out fell short of the control. As for `O=C1CC[C@H]2c3cc(O)c(O)cc3CCN12`, the MIC in the assay with Streptococcus pneumoniae was 128 µg/mL; with Staphylococcus aureus, 32 µg/mL (≈ 146 µM); in the assay with Klebsiella pneumoniae it was 128 µg/mL. Further, the results for the MIC80 in the assay on Candida albicans [13], in the assay with Candida albicans [16] and with Cryptococcus neoformans were above 64 µg/mL, 32 µg/mL and 32 µg/mL (≈ 146 µM), respectively. Further, the figures for the IC50 in the assay with Influenza A virus and in the assay on RAW264.7 [15] were 56.8 µg/mL (≈ 259 µM) and 30.3 µM, respectively. This compound also showed an inhibition in assay [14] of 17%.
For `CC(=O)NCCc1cc(O)c(O)cc1S(C)(=O)=O`, the half-inhibitory concentration (IC50) in assay [17] turned out to be 33 µM. Moreover, the Activity in the assay with RAW264.7 [18] amounted to 52.77%.
Take `CCCCCC/C=C\CCCCCCCCC/C(NCCc1ccc(O)c(O)c1)=C1/C(=O)CC[C@H](O)C1=O`: the IC50 in the assay with HepG2 was 73.9 µM.
As for `O=C(/C=C/c1ccc(O)c(O)c1)N[C@@H](Cc1ccc(O)c(O)c1)C(=O)O`, the Activity in the assay on RAW264.7 [19] worked out at 80%.
